Entries after “also recorded” stand apart in the source; their conditions may differ.
Tests used:
[1] = system: Apc-null Lgr5-GFP^hi ISCs and Lgr5-GFP^low progenitors; assay: In vitro adenomatous organoid formation by Apc-null ISCs and progenitors; assay type: cell-based, mouse
Description: (§1) To test this possibility, the present inventors generated Apc^loxp/loxp; Lgr5-EGFP-IRES-CreERT2 mice to assess whether pharmacological PPAR-δ activation modifies the tumorigenic capacity of the Lgr5-GFP^low progenitors. Injection with tamoxifen leads to Apc-loss in the Lgr5-GFP^hi ISCs, which in turn generate Apc-null Lgr5-GFP^low progenitors. Four days after tamoxifen administration, we flow sorted Apc-null Lgr5-GFP^hi ISCs and Lgr5-GFP^low progenitors from vehicle and PPAR-δ agonist treated mice to assess the tumor-forming potential of these populations using separate assays (FIG. 7B): first, we examined their ability to give rise to adenomatous organoids in culture; and second, we interrogated the ability of 10,000 freshly sorted stem and progenitor cells to initiate adenomatous lesions in syngeneic recipient colons.
Isolated ISCs or progenitor cells were centrifuged for 5 minutes at 250 g, re-suspended in the appropriate volume of crypt culture medium (500-1,000 cells μl^−1), then seeded onto 25-30 μl Matrigel™ (Corning 356231 growth factor reduced) containing 1 μM jagged (Ana-Spec) in a flat bottom 48-well plate (Corning 3548). Alternatively, ISCs and Paneth cells were mixed after sorting in a 1:1 ratio, centrifuged, and then seeded onto Matrigel™. The Matrigel™ and cells were allowed to solidify before adding 300 μl of crypt culture medium. The crypt media was changed every second or third day. Organoid bodies were quantified on days 3, 7 and 10 of culture, unless otherwise specified. With respect to the study results presented in FIGS. 14-16, organoid bodies were quantified on day 3-4. In secondary experiments, individual primary organoids were mechanically dissociated and re-plated, or organoids were dissociated for 10 minutes in TrypLE Express at 32° C., re-suspended with SMEM (Life Technologies), centrifuged and re-suspended in cold SMEM with viability dye 7-AAD. Live cells were sorted and seeded onto Matrigel™ as previously described.

[2] = system: Lgr5-GFP^hi ISCs and Lgr5-GFP^low progenitors; assay: Flow cytometry enumeration of Lgr5-GFP^hi ISCs and Lgr5-GFP^low progenitors in Lgr5-EGFP-IRES-CreERT2 mice; assay type: in vivo, mouse; conditions: GW501516 4 mg/kg daily IP, 2-4 weeks, vs vehicle
Description: Mice were housed in the Unit for Laboratory Animal Medicine at the Whitehead Institute for Biomedical Research and Koch Institute for Integrative Cancer Research. Lgr5-EGFP-IRES-CreERT2 mice (strain name: B6.129P2-Lgr5^tm1(cre/ERT2)Cle/J, stock number 008875), and Rosa26-lacZ mice (strain name: B6.129S4-Gt(ROSA)26Sor^tm1Sor/J, stock number 003474) were obtained from the Jackson Laboratory. […] Control mice were age-matched and fed normal chow ad libitum. GW501516 (Enzo) was reconstituted in DMSO at 4.5 mg ml^−1 and diluted 1:10 in a solution of 5% PEG400 (Hampton Research), 5% Tween80 (Sigma), 90% H2O for a daily intraperitoneal injection of 4 mg/kg.
As previously reported and briefly summarized here, small intestines were removed, washed with cold PBS−/−, opened laterally and cut into 3-5 mm fragments. Pieces were washed multiple times with cold PBS−/− until clean, washed 2-3 with PBS−/−/EDTA (10 mM), and incubated on ice for 90-120 minutes while mixing at 30-minute intervals. Crypts were then mechanically separated from the connective tissue by shaking, and filtered through a 70-μm mesh into a 50-ml conical tube to remove villous material and tissue fragments. At this point the suspension was mainly composed of crypts. […] For ISC isolation, the crypt suspensions were dissociated to individual cells with TrypLE Express (Invitrogen). Cell labeling consisted of an antibody cocktail comprising CD45-PE (eBioscience, 30-F1 1), CD31-PE (Biolegend, Mecl3.3), Ter119-PE (Biolegend, Ter119), CD24-Pacific Blue (Biolegend, M1/69), CD117-APC/Cy7 (Biolegend, 2BS), and EPCAM-APC (eBioscience, G8.8). ISCs were isolated as Lgr5-EGFP^hiEpcam^+CD24^low/−CD31^−Ter119 CD45^−7-AAD^−. EGFP^low progenitors were isolated as EGFP^lowEpcam^+CD24^low/−CD31^−Ter119^−CD45^−7-AAD^−, and Paneth cells were isolated as CD24^hiSidescatter^hiLgr5-EGFP^−Epcam^+CD31^−Ter119^−CD45^−7-AAD^− with a BD FACS Aria II SORP cell sorter into supplemented crypt culture medium for culture. Dead cells were excluded from the analysis with the viability dye 7-AAD (Life Technologies).

[3] = system: Apc-null Lgr5-GFP^hi ISCs and Lgr5-GFP^low progenitors; assay: Orthotopic transplantation of Apc-null cells into recipient colons; assay type: in vivo, mouse; conditions: 10,000 cells from GW501516-treated mice; for adenoma initiation by transplanted Apc-null Lgr5-GFP^low progenitors: vehicle 0±0
Description: as §1
Apc^loxp/loxp; Lgr5-EGFP-IRES-CreERT2 mice were treated with vehicle or GW501516 for one month, and then injected with two doses of tamoxifen I.P. Four days later, Apc-null Lgr5-GFP^hi ISCs and Lgr5-GFP^low progenitors were sorted by flow cytometry, as described above. For primary cell transplantations, 10,000 Apc-null Lgr5-GFP^hi ISCs and Lgr5-GFP^low progenitors were resuspended into 90% crypt culture media (as described) and 10% Matrigel™, then transplanted into the colonic lamina propria of C57BL/6 recipient mice by optical colonoscopy using an injection needle (Hamilton Inc., part number 7750-21, 30 gauge, Kel-F Hub NDL, 14 inches length, 45 degree bevel) and specialized syringe (Hamilton Inc, part number 81242, 500 μL, Model 1750 LT Threaded Plunger). Optical colonoscopy was performed using a Karl Storz Image 1 HD Camera System, Image 1 HUB CCU, 175 Watt Xenon Light Source, and Richard Wolf 1.9 mm/9.5 Fr Integrated Telescope (part number 8626.431). Four injections were performed per mouse. Mice then underwent colonoscopy four weeks later to assess tumor formation. Colonoscopy videos and images were saved for offline analysis. […]

[4] = system: PPAR-δ target genes; assay: PPAR-δ target gene and protein expression in flow sorted ISCs and progenitors (qRT-PCR, immunoblot, RNA-seq); assay type: in vivo, mouse; conditions: GW501516 for 4 weeks, protein level
Description: Antibodies: rabbit polyclonal anti-PPAR-δ (1:100, Thermo PA1-823A), rabbit polyclonal anti-Cpt1a (1:250, ProteinTech 15184-1-AP), rabbit polyclonal anti-HMGCS2 (1:500, Sigma AV41562), rabbit monoclonal anti-FABP1 (1:1000, Abcam ab129203), rabbit polyclonal anti-γ-tubulin (1:1000, Sigma T5192). Lgr5-GFP^hi ISCs or GFP^low progenitors were sorted directly into sample buffer and boiled for five minutes. Samples were resolved by SDS-PAGE and analyzed by immunoblotting with goat anti-rabbit IgG-HRP secondary antibodies (1:10,000, Santa Cruz Biotechnology sc-2054) and Western Lightning Plus-ECL detection kit (Perkin Elmer, NEL 104001EA).
Cells were sorted into Tri Reagent (Life Technologies) and total RNA was isolated according to the manufacturer's instructions with following modification: the aqueous phase containing total RNA was purified using RNeasy plus kit (Qiagen). RNA was converted to eDNA with cDNA synthesis kit (Bio-Rad). qRT-PCR was performed with SYBR green master mix (Bio-Rad) on Bio-Rad iCycler RT-PCR detection system. Primers used are listed on Table 4 below.
RNA Isolation. […] From the total RNA, poly(A)^+ RNA was selected using Oligo(dT)25-Dynabeads (Life technologies) according to the manufacturer's protocol.

adenoma initiation by transplanted Apc-null Lgr5-GFP^low progenitors [3]: initiated tumors | adenoma initiation by transplanted Apc-null Lgr5-GFP^low progenitors ([3]; listed as PPAR-δ agonist): 0.58±0.16 | intestinal adenoma formation by transplanted Apc-null Lgr5-GFP^hi ISCs ([3]; vehicle 0.67±0.13, listed as PPAR-δ agonist): 0.61±0.19
SMILES: Cc1cc(SCc2sc(-c3ccc(C(F)(F)F)cc3)nc2C)ccc1OCC(=O)O [GW501516, 2-[2-methyl-4-[[4-methyl-2-[4-(trifluoromethyl)phenyl]-1,3-thiazol-5-yl]methylsulfanyl]phenoxy]acetic acid]
in vitro adenoma-initiating potential of Apc-null Lgr5-GFP^low progenitors ([1]; GW501516-treated mice, EN media, vehicle 0.04±0.05): 0.18±0.07 | in vitro adenomatous organoid-forming potential of Apc-null Lgr5-GFP^hi ISCs ([1]; GW501516-treated vs vehicle): not altered | increase of in vitro adenomatous organoid forming potential of Apc-null Lgr5-GFP^low progenitors ([1]; GW501516-treated vs vehicle, EN media): four-fold | in vitro adenomatous organoid-forming potential of Apc-null Lgr5-GFP^hi ISCs ([1]; GW501516-treated vs vehicle, listed as PPAR-δ agonist): as clonogenic as those from vehicle controls | number of Lgr5-GFP^low progenitors ([2]; 4 mg/kg): not in progenitor cells; also recorded: no effect | number/frequency of Lgr5-GFP^hi ISCs ([2]; 4 mg/kg): augmented; also recorded: selective increase; also recorded: doubled the number | number/frequency of Lgr5-GFP^hi ISCs ([2]; listed as GW501515): sufficient to enhance | PPAR-δ target proteins in ISCs and progenitors [4]: strong induction; also recorded: upregulated
